Like-named read-outs stand apart in the source and are kept apart here. Values belong to the molecule of their own block, whether it stands above or below them.
Key:
BaAAO [1] = target: T1, BaAAO (Bjerkandera adusta, UniProt A0ABF7PQ87); assay: Steady-state bi-substrate kinetics of alcohol oxidation; assay type: biochemical
Protocol: (§1) Bi-substrate kinetics were analyzed by concurrently varying the concentration of the aforementioned alcohols and electron acceptors. Oxygen assays were carried out in a screw-cap cuvette where the alcohol was equilibrated with the desired concentration of O2 by bubbling with the appropriate O2/N2 gas mixture (4%, 10%, 21%, 44%, and 100% O2) for 10 min. Alcohol oxidation was initiated by the addition of the enzyme and followed at 285 nm for 4-methoxybenzaldehyde production and 295 nm in the case of 3-Cl-4-methoxybenzaldehyde (Δε285 = 16,950 M^−1cm^−1 and Δε295 = 15,000 M^−1cm^−1, respectively) ([Ferreira et al., 2005]). […]. BQ solutions were prepared immediately prior to use and protected from the light to avoid photodegradation.
(§2) The initial rates for bi-substrate kinetics were fitted to Eq. 1 or Eq. 2, which describe sequential and ping-pong kinetic mechanisms, respectively. […]

PeAAO [2] = target: T2, PeAAO (Pleurotus eryngii, UniProt O94219); assay: as above; assay type: biochemical
Protocol: as §1, §2

BaAAO [3] = target: T1, BaAAO; assay: Stopped-flow reductive half-reaction (flavin reduction by alcohol); assay type: biochemical; settings: anaerobic, 50 mM sodium phosphate, pH 6.0, 25 °C
Protocol: (§3) Studies on the reductive half-reaction were performed by mixing AAO (∼10 μM, final concentration) with increasing concentrations of alcohols under anaerobic conditions. Observed rate constants (k obs) were calculated using global analysis and numerical integration methods, simultaneously utilizing all spectral data in the 400–800 nm region along time evolution using the ProKineticist software from Applied Photophysics.

PeAAO [4] = target: T2, PeAAO; assay: as above; assay type: biochemical
Protocol: as §3

BaAAO [5] = target: T1, BaAAO; assay: Redox state of the enzyme during turnover (stopped-flow); assay type: biochemical; settings: in the presence of O2 (air), saturating alcohol, pH 6.0, 25 °C
PeAAO [6] = target: T2, PeAAO
Text: (§4) Data were globally fitted to an equation describing a one-step process.

BaAAO [7] = target: T1, BaAAO
Text: as §4

PeAAO [8] = target: T2, PeAAO; parameters: method as in Ferreira et al. (2023); settings: alcohol substrate 4-methoxybenzyl alcohol, 50 mM phosphate, pH 6.0, 25 °C, ref Ferreira et al. (2023); cited from earlier work
BaAAO [9] = target: T1, BaAAO; parameters: method as in Ferreira et al. (2023); settings: alcohol substrate 4-methoxybenzyl alcohol, 50 mM phosphate, pH 6.0, 25 °C, ref Ferreira et al. (2023); cited from earlier work
PeAAO [10] = target: T2, PeAAO; settings: pH 6.0, 12 °C, cited from earlier work
PeAAO [11] = target: T2, PeAAO; assay: Stopped-flow oxidative half-reaction (flavin reoxidation by O2 or BQ); settings: PeAAO
PeAAO [12] = target: T2, PeAAO; parameters: method as in Carro et al. (2018a); settings: pH 6.0, 12 °C, ref Carro et al. (2018a), cited from earlier work
BaAAO [13] = target: T1, BaAAO; assay: biochemical
Text: as §4

[14] = substrate: COc1ccc(CO)cc1Cl; assay: Steady-state bi-substrate kinetics of alcohol oxidation; assay type: biochemical, Bjerkandera adusta; settings: other: BaAAO, 50 mM phosphate, pH 6.0, 25 °C
Protocol: as §1, §2

[15] = substrate: O=C1C=CC(=O)C=C1; assay: as above; assay type: biochemical, Bjerkandera adusta; settings: other: BaAAO, alcohol substrate 3-Cl-4-methoxybenzyl alcohol, 50 mM phosphate, pH 6.0, 25 °C
Protocol: as §1, §2

[16] = substrate: COc1ccc(CO)cc1Cl; assay: as above; assay type: biochemical, Pleurotus eryngii; settings: other: PeAAO, 50 mM phosphate, pH 6.0, 25 °C
Protocol: as §1, §2

[17] = substrate: O=C1C=CC(=O)C=C1; assay: as above; assay type: biochemical, Pleurotus eryngii; settings: other: PeAAO, alcohol substrate 3-Cl-4-methoxybenzyl alcohol, 50 mM phosphate, pH 6.0, 25 °C
Protocol: as §1, §2

[18] = anaerobic, 50 mM sodium phosphate, pH 6.0, 25 °C
[19] = 50 mM sodium phosphate, pH 6.0, 12 °C
[20] = BaAAO, alcohol substrate 3-Cl-4-methoxybenzyl alcohol, 50 mM phosphate, pH 6.0, 25 °C
[21] = alcohol substrate 3-Cl-4-methoxybenzyl alcohol, 50 mM phosphate, pH 6.0, 25 °C

turnover of BaAAO higher than PeAAO (BaAAO [1]; O2 as electron acceptor): 2 fold
k cat lower than for the other substrate (4-methoxybenzyl alcohol) (PeAAO [2]): 4 fold
k red (BaAAO [3]): 121 ± 11 s⁻¹
k red/K d(alcohol) (BaAAO [3]): 404000 ± 127000 M⁻¹ s⁻¹
Kd (BaAAO [3]; read-out: K d(alcohol)): 300 ± 91 µM
k red (PeAAO [4]; [18]): 96 ± 3 s⁻¹
k red/K d(alcohol) (PeAAO [4]; [18]): 4,486 ± 725 s^−1mM^-1
Kd (PeAAO [4]; anaerobic, 50 mM sodium phosphate, pH 6.0, 25 °C, read-out: K d(alcohol)): 21 ± 3 µM
k red higher than k cat (PeAAO [4]; turnover with BQ): 4 fold
k red higher than k cat (PeAAO [4]; turnover with O2): 2 fold
reduced form of the enzyme during turnover (BaAAO [5]): ≤ 60%
Molecule: COc1ccc(CO)cc1Cl [3-Cl-4-methoxybenzyl, 3-chloro-4-methoxybenzyl alcohol]

k on (PeAAO [6]; [19]): 37000 ± 1000 M⁻¹ s⁻¹
k off (PeAAO [6]; 50 mM sodium phosphate, pH 6.0, 12 °C, nd = not detected): no dissociation
k off (BaAAO [7]; [19]): 13 ± 1 s⁻¹
k on (BaAAO [7]; [19]): 47000 ± 2000 M⁻¹ s⁻¹
Kd (BaAAO [7]; read-out: K d(acid), K d = k off/k on, pH 6.0, 12 °C): 276 ± 38 µM
Molecule: COc1ccc(C(=O)O)cc1Cl [3-Cl-4-methoxybenzoic acid]

k on slower than that of 3-Cl-4-methoxybenzoic acid (PeAAO [6]): approximately 2 fold
k on slower than that of 3-Cl-4-methoxybenzoic acid (BaAAO [7]): ~5 fold
Kd (BaAAO [13]): 1810 ± 197 µM
k off (BaAAO [13]; pH 6): 18 ± 2 s⁻¹
k on (BaAAO [13]; pH 6): 10000 ± 1000 M⁻¹ s⁻¹
Molecule: COc1ccc(C(=O)O)cc1 [4-Methoxybenzoic acid, 4-methoxybenzoic acid]
k off (PeAAO [12]; 50 mM sodium phosphate): 3 ± 1 s⁻¹
k on (PeAAO [12]; 50 mM sodium phosphate): 18000 ± 1000 M⁻¹ s⁻¹
Kd (PeAAO [12]; K d = k off/k on, read-out: K d(acid)): 149 ± 10 µM

Continued, molecule first:

Molecule: O=O [O2]
K m(acceptor) (BaAAO [1]; [20]): 225 ± 8 µM
k cat/K m(acceptor) (BaAAO [1]; [20]): 312000 ± 12000 M⁻¹ s⁻¹
K m(acceptor) (PeAAO [2]; [21]): 67 ± 2 µM
k cat/K m(acceptor) (PeAAO [2]; [21]): 647000 ± 22000 M⁻¹ s⁻¹
K m(acceptor) (PeAAO [8]): 176 ± 1 µM
k cat/K m(acceptor) (PeAAO [8]): 1,139 ± 35 s^−1mM^−1
K m(acceptor) (BaAAO [9]): 134 ± 5 µM
k cat/K m(acceptor) (BaAAO [9]): 549000 ± 23000 M⁻¹ s⁻¹
k ox(O2) (PeAAO [10]; PeAAO reduced by 3-Cl-4-methoxybenzyl alcohol, ref Ferreira et al. (2015)): 790 ± 20 ^b s^−1mM^−1
k ox(O2) (PeAAO [10]; PeAAO reduced by 4-methoxybenzyl alcohol, ref Carro et al. (2018a)): 770 ± 40 ^a s^−1mM^−1
reverse rate constant (k rev), y-axis intercept of reoxidation (PeAAO [11]): 17 s⁻¹

B1: BaAAO (Bjerkandera adusta) (protein)
chain: MVTFFTDASQLPATVYDFIVVGAGNAGNVVAARLTEDWKTTVLLIEAGISHEGIDSVAVPGLVLDNLPFSPVMWNYTTVPQAALDNRPIPYAKGRVVGGSSSVNFMEYTRSSNTEYDRWANLTGDAGWSWKNMEQYYLKNSRLVPPQDGHNTTGDVDPSVHGYGPVPLSLVGTPNPLDARMRAATQAPGAEFPFQLDMNGGDMIGFGIVQSTILNGERMHSGKAFLEPAMSRPNLHVLIENTVTRLIQTKTTNGLPSFMKVEFARDALSARSVVTATKEVVLSAGSIGTPQILMLSGIGDREELTAIGVNVTVDNPAVGKHLKDHPIMANYFQVNSNETYDDIFRDRDVSNTFLAQWKQNRTGPMVASPSTGLGFFRLPDNDTIFERFADPSPGEGAGHIELILSNQWTPEVQIPPATGSFLTVHAVVVSPASEGTVRLNSTNPFEFPLLDPQLLSSEFDQHTIIHAARLARQFVSSSPWADFVESRTGIIGDTDDDEADLLAAARQATVTIWHPMCTARMAPKGSTDGAIDPDLLVKGVSGLRVIDGAALPAIPATHPMAAIYLLAERGSDLIKQKWKL
Km ([14]; BQ as e− acceptor (anaerobic)): 26 ± 4 µM
kcat ([14]; BQ as e− acceptor (anaerobic)): 23 ± 1 s⁻¹
kcat/Km ([14]; BQ as e− acceptor (anaerobic)): 910000 ± 146000 M⁻¹ s⁻¹
Km ([14]; O2 as e− acceptor): 94 ± 4 µM
kcat ([14]; O2 as e− acceptor): 70 ± 1 s⁻¹
kcat/Km ([14]; O2 as e− acceptor): 747000 ± 32000 M⁻¹ s⁻¹
Km [15]: 66 ± 12 µM

B2: PeAAO (Pleurotus eryngii) (protein)
chain: ADFDYVVVGAGNAGNVVAARLTEDPDVSVLVLEAGVSDENVLGAEAPLLAPGLVPNSIFDWNYTTTAQAGYNGRSIAYPRGRMLGGSSSVHYMVMMRGSTEDFDRYAAVTGDEGWNWDNIQQFVRKNEMVVPPADNHNTSGEFIPAVHGTNGSVSISLPGFPTPLDDRVLATTQEQSEEFFFNPDMGTGHPLGISWSIASVGNGQRSSSSTAYLRPAQSRPNLSVLINAQVTKLVNSGTTNGLPAFRCVEYAEQEGAPTTTVCAKKEVVLSAGSVGTPILLQLSGIGDENDLSSVGIDTIVNNPSVGRNLSDHLLLPAAFFVNSNQTFDNIFRDSSEFNVDLDQWTNTRTGPLTALIANHLAWLRLPSNSSIFQTFPDPAAGPNSAHWETIFSNQWFHPAIPRPDTGSFMSVTNALISPVARGDIKLATSNPFDKPLINPQYLSTEFDIFTMIQAVKSNLRFLSGQAWADFVIRPFDPRLRDPTDDAAIESYIRDNANTIFHPVGTASMSPRGASWGVVDPDLKVKGVDGLRIVDGSILPFAPNAHTQGPIYLVGKQGADLIKADQ
Km ([16]; BQ as e− acceptor (anaerobic)): 4 ± 1 µM
kcat ([16]; BQ as e− acceptor (anaerobic)): 21 ± 1 s⁻¹
kcat/Km ([16]; BQ as e− acceptor (anaerobic)): 5,874 ± 481 s^−1mM^−1
Km ([16]; O2 as e− acceptor): 11 ± 1 µM
kcat ([16]; O2 as e− acceptor): 43 ± 1 s⁻¹
kcat/Km ([16]; O2 as e− acceptor): 3,806 ± 122 s^−1mM^−1
Km [17]: 29 ± 2 µM

From paper PMC11330772, “Unveiling the kinetic versatility of aryl-alcohol oxidases with different electron acceptors” (Frontiers in Bioengineering and Biotechnology, 2024)
